Measured values from the NIST ThermoML archive (doi:10.1021/je060271a).
Numbers after ± are expanded uncertainties.

Details: 303.15 K, Liquid, Vibrating tube method

SMILES: CCCCCC(=O)OCC(COC(=O)CCCCC)(COC(=O)CCCCC)COC(=O)CCCCC [pentaerythritol tetrahexanoate]
- mass density (941.9 kPa): 988.9 ± 1.2 kg/m3
- mass density (951.9 kPa): 989 ± 1.2 kg/m3
- mass density (958.5 kPa): 988.9 ± 1.2 kg/m3
- mass density (967.6 kPa): 989 ± 1.2 kg/m3
- mass density (978.3 kPa): 988.9 ± 1.2 kg/m3
- mass density (988.8 kPa): 988.9 ± 1.2 kg/m3
- mass density (998 kPa): 988.9 ± 1.2 kg/m3
- mass density (1009.3 kPa): 989 ± 1.2 kg/m3
- mass density (1019.8 kPa): 989 ± 1.2 kg/m3
- mass density (1029.2 kPa): 989 ± 1.2 kg/m3
- mass density (1039.1 kPa): 989.1 ± 1.2 kg/m3
- mass density (1048.9 kPa): 989 ± 1.2 kg/m3
- mass density (1061.2 kPa): 989 ± 1.2 kg/m3
- mass density (1072 kPa): 989 ± 1.2 kg/m3
- mass density (1082 kPa): 989.1 ± 1.2 kg/m3
- mass density (1093.8 kPa): 989.1 ± 1.2 kg/m3
- mass density (1103.9 kPa): 989.2 ± 1.2 kg/m3
- mass density (1113.5 kPa): 989 ± 1.2 kg/m3
- mass density (1123.5 kPa): 989.2 ± 1.2 kg/m3
- mass density (1135.9 kPa): 989 ± 1.2 kg/m3
- mass density (1146.3 kPa): 989 ± 1.2 kg/m3
- mass density (1156.2 kPa): 989.1 ± 1.2 kg/m3
- mass density (1166.8 kPa): 989.1 ± 1.2 kg/m3
- mass density (1179.7 kPa): 989.1 ± 1.2 kg/m3
- mass density (1189.9 kPa): 989.1 ± 1.2 kg/m3
- mass density (1200.7 kPa): 989.1 ± 1.2 kg/m3
- mass density (1210.9 kPa): 989.1 ± 1.2 kg/m3
- mass density (1223.8 kPa): 989.2 ± 1.2 kg/m3
- mass density (1234.4 kPa): 989.1 ± 1.2 kg/m3
- mass density (1245.1 kPa): 989.2 ± 1.2 kg/m3
- mass density (1258.2 kPa): 989.1 ± 1.2 kg/m3
- mass density (1269.3 kPa): 989.2 ± 1.2 kg/m3
- mass density (1280 kPa): 989.2 ± 1.2 kg/m3
- mass density (1291.5 kPa): 989.2 ± 1.2 kg/m3
- mass density (1305.2 kPa): 989.2 ± 1.2 kg/m3
- mass density (1316.3 kPa): 989.2 ± 1.2 kg/m3
- mass density (1327.8 kPa): 989.1 ± 1.2 kg/m3
- mass density (1339.4 kPa): 989.3 ± 1.2 kg/m3
- mass density (1353.7 kPa): 989.2 ± 1.2 kg/m3
- mass density (1365.5 kPa): 989.2 ± 1.2 kg/m3
- mass density (1377.5 kPa): 989.2 ± 1.2 kg/m3
- mass density (1391.9 kPa): 989.3 ± 1.2 kg/m3
- mass density (1719.8 kPa): 989.5 ± 1.2 kg/m3
- mass density (1738.4 kPa): 989.5 ± 1.2 kg/m3
- mass density (1753.5 kPa): 989.5 ± 1.2 kg/m3
- mass density (1768.6 kPa): 989.6 ± 1.2 kg/m3
- mass density (1784.2 kPa): 989.5 ± 1.2 kg/m3
- mass density (1803 kPa): 989.6 ± 1.2 kg/m3
- mass density (1854.3 kPa): 989.5 ± 1.2 kg/m3
- mass density (1870.3 kPa): 989.5 ± 1.2 kg/m3
- mass density (1886.5 kPa): 989.6 ± 1.2 kg/m3
- mass density (1903.5 kPa): 989.5 ± 1.2 kg/m3
- mass density (1923.6 kPa): 989.6 ± 1.2 kg/m3
- mass density (2090.4 kPa): 989.6 ± 1.2 kg/m3
- mass density (2108.2 kPa): 989.7 ± 1.2 kg/m3
- mass density (2167.4 kPa): 989.7 ± 1.2 kg/m3
- mass density (2229.2 kPa): 989.8 ± 1.2 kg/m3
- mass density (2248.4 kPa): 989.7 ± 1.2 kg/m3
- mass density (2292.3 kPa): 989.8 ± 1.2 kg/m3
- mass density (2312.5 kPa): 989.8 ± 1.2 kg/m3
- mass density (2337.4 kPa): 989.9 ± 1.2 kg/m3
- mass density (2355.8 kPa): 989.8 ± 1.2 kg/m3
- mass density (2380.4 kPa): 989.9 ± 1.2 kg/m3
- mass density (2401.1 kPa): 989.9 ± 1.2 kg/m3
- mass density (2421.9 kPa): 989.8 ± 1.2 kg/m3
- mass density (2443 kPa): 989.9 ± 1.2 kg/m3
- mass density (2468.5 kPa): 990 ± 1.2 kg/m3
- mass density (2489.7 kPa): 990 ± 1.2 kg/m3
- mass density (2511 kPa): 990 ± 1.2 kg/m3
- mass density (2536.5 kPa): 989.9 ± 1.2 kg/m3
- mass density (2558.6 kPa): 990 ± 1.2 kg/m3
- mass density (2580.8 kPa): 990 ± 1.2 kg/m3
- mass density (2603.5 kPa): 990 ± 1.2 kg/m3
- mass density (2631.6 kPa): 990 ± 1.2 kg/m3
- mass density (2649.5 kPa): 990.1 ± 1.2 kg/m3
- mass density (2676.9 kPa): 990 ± 1.2 kg/m3
- mass density (2699.1 kPa): 990 ± 1.2 kg/m3
- mass density (2726.5 kPa): 990 ± 1.2 kg/m3
- mass density (2749.6 kPa): 990.2 ± 1.2 kg/m3
- mass density (2772.3 kPa): 990.1 ± 1.2 kg/m3
- mass density (2795.2 kPa): 990.1 ± 1.2 kg/m3
- mass density (2823.5 kPa): 990.2 ± 1.2 kg/m3
- mass density (2846.9 kPa): 990.2 ± 1.2 kg/m3
- mass density (2870.6 kPa): 990.2 ± 1.2 kg/m3
- mass density (2899.1 kPa): 990.1 ± 1.2 kg/m3
- mass density (2923.3 kPa): 990.2 ± 1.2 kg/m3
- mass density (2948 kPa): 990.2 ± 1.2 kg/m3
- mass density (2972.9 kPa): 990.3 ± 1.2 kg/m3
- mass density (3001.9 kPa): 990.2 ± 1.2 kg/m3
- mass density (3026.2 kPa): 990.3 ± 1.2 kg/m3
- mass density (3050.9 kPa): 990.3 ± 1.2 kg/m3
- mass density (3075.6 kPa): 990.3 ± 1.2 kg/m3
- mass density (3105.6 kPa): 990.3 ± 1.2 kg/m3
- mass density (3130.3 kPa): 990.3 ± 1.2 kg/m3
- mass density (3156 kPa): 990.4 ± 1.2 kg/m3
- mass density (3181.3 kPa): 990.4 ± 1.2 kg/m3
- mass density (3212.3 kPa): 990.4 ± 1.2 kg/m3
- mass density (3237.8 kPa): 990.4 ± 1.2 kg/m3
- mass density (3263.7 kPa): 990.4 ± 1.2 kg/m3
- mass density (3294.7 kPa): 990.4 ± 1.2 kg/m3
- mass density (3320.9 kPa): 990.4 ± 1.2 kg/m3
- mass density (3346.9 kPa): 990.6 ± 1.2 kg/m3
- mass density (3378.1 kPa): 990.5 ± 1.2 kg/m3
- mass density (3404.7 kPa): 990.5 ± 1.2 kg/m3
- mass density (3430.9 kPa): 990.6 ± 1.2 kg/m3
- mass density (3457.8 kPa): 990.7 ± 1.2 kg/m3
- mass density (3490.4 kPa): 990.6 ± 1.2 kg/m3
- mass density (3517.7 kPa): 990.5 ± 1.2 kg/m3
- mass density (3545.6 kPa): 990.5 ± 1.2 kg/m3
- mass density (3578.7 kPa): 990.6 ± 1.2 kg/m3
- mass density (3606.3 kPa): 990.7 ± 1.2 kg/m3
- mass density (3634.2 kPa): 990.5 ± 1.2 kg/m3
- mass density (3662.6 kPa): 990.7 ± 1.2 kg/m3
- mass density (3690.5 kPa): 990.7 ± 1.2 kg/m3
- mass density (3724.1 kPa): 990.7 ± 1.2 kg/m3
- mass density (3752.7 kPa): 990.9 ± 1.2 kg/m3
- mass density (3781.8 kPa): 990.7 ± 1.2 kg/m3
- mass density (3810.6 kPa): 990.8 ± 1.2 kg/m3
- mass density (3844.5 kPa): 990.8 ± 1.2 kg/m3
- mass density (3872.4 kPa): 990.8 ± 1.2 kg/m3
- mass density (3901 kPa): 990.8 ± 1.2 kg/m3
- mass density (3935 kPa): 990.9 ± 1.2 kg/m3
- mass density (3963.4 kPa): 990.9 ± 1.2 kg/m3
- mass density (3991.9 kPa): 990.9 ± 1.2 kg/m3
- mass density (4026.4 kPa): 990.9 ± 1.2 kg/m3
- mass density (4056 kPa): 991 ± 1.2 kg/m3
- mass density (4084.6 kPa): 991 ± 1.2 kg/m3
- mass density (4113.5 kPa): 991 ± 1.2 kg/m3
- mass density (4146.8 kPa): 991 ± 1.2 kg/m3
- mass density (4175 kPa): 991.1 ± 1.2 kg/m3
- mass density (4876.2 kPa): 991.5 ± 1.2 kg/m3
- mass density (4893.7 kPa): 991.5 ± 1.2 kg/m3
- mass density (4923.8 kPa): 991.5 ± 1.2 kg/m3
- mass density (4939.3 kPa): 991.6 ± 1.2 kg/m3
- mass density (4955.2 kPa): 991.5 ± 1.2 kg/m3
- mass density (4973.4 kPa): 991.6 ± 1.2 kg/m3
- mass density (4988.8 kPa): 991.5 ± 1.2 kg/m3
- mass density (5003.5 kPa): 991.5 ± 1.2 kg/m3
- mass density (5021.5 kPa): 991.7 ± 1.2 kg/m3
- mass density (5037.1 kPa): 991.6 ± 1.2 kg/m3
- mass density (5052.1 kPa): 991.7 ± 1.2 kg/m3
- mass density (5067.7 kPa): 991.7 ± 1.2 kg/m3
- mass density (5086.4 kPa): 991.5 ± 1.2 kg/m3
- mass density (5101.8 kPa): 991.6 ± 1.2 kg/m3
- mass density (5117.7 kPa): 991.7 ± 1.2 kg/m3
